Experimental findings from patent US7825268B2, “Alkoxylactones, alkoxylactams and alkoxythiolactams for controlling processes based on microbial interaction” (Henkel AG & Co. KGaA, priority 2003, dated 2010) are described below.

Structures are written as SMILES.

The subject of this assay is Pseudomonas aeruginosa ATCC 15442. As to the kind of experiment: Biofilm test on glass surfaces (microscope slides, SafraninO staining). Format: cell-based. As to conditions: 6 hours incubation; for biofilm reduction (relative to the control without active substance): first range finding experiments (FIG. 1). The protocol:
(b) Use of Alkyloxylactones for the Reduction of Biofilms on Glass Surfaces.
The germ Pseudomonas aeruginosa ATCC 15442 is cultivated at 37° C. on Caso-Agar overnight. A CFU (Colony Eorming Unit) of solid medium is incubated in 50 ml Caso-broth at 37° C. for 7 hours and 150 rpm (1. passage). 100 μl germs from the washed liquid culture are carried over into 50 ml fresh Caso-nutrient medium and incubated at 37° C. for approximately 16 hours and 150 rpm. (2. Passage). A germ count of 10^6 CFU/ml is used from this second passage in the biofilm test. For the biofilm test, the germs in the above-mentioned concentration, together with a diluted complete medium (20 times with DGHM-water diluted TBY), are pipetted into a micro-titration plate (6-position chamber), which is used as the miniaturized biofilm test system. The active substances under test are added in the desired concentration to the mixture (3 ml). As controls, first, attempts were made with active substances, but without germs, as the active substances could already have an inherent color (negative control); secondly, diluted complete medium with germs, but without the active substances were also used as controls. In addition, 1 sterile glass plate (microscope slide), size 18×18, on the surface of which the biofilm growth is investigated, is placed into each of the 6-position chambers. For each starting material, triple determinations are carried out, i.e. three glass slides are investigated per starting material. The 6-position plates are shaken for 6 or 24 hours at 30° C. and 60 rpm. After the predetermined incubation times, 1 ml per starting material are removed for germ count determination, diluted in trypton-NaCl solution and plated out on Caso-Agar. The resulting plates are incubated for 24 hours at 37° C. and then counted. The slide glasses are taken out of the 6-positions to be dried at room temperature and then dyed in new 6-positions with 3 ml 0.01% SafraninO-solution (made up in sterile water) for 15 minutes. The colorant solution is then siphoned off, non-bound colorant is removed with water from the slide glasses and the colored slide glasses dried. The colored and dried surfaces of the slide glasses are scanned and evaluated using Corel Draw paint 9. In order to be able to subtract the background value (of the glass) from the measured value, additional untreated slide glasses are also scanned.

Setting [1] is: 100 ppm, DMSO control = 100% (FIG. 2).
The mark [2] stands for this setting: 50 ppm and 100 ppm, control without active substance = 100% (FIG. 1).

Take `CCCCCCCOC1C(=O)OCC1(C)C` (stereo not drawn) [Example 188, Heptyloxypantolactone]: the “biofilm reduction (with respect to the DMSO control)” value under setting [1] is on record as “more than 40%”.

For `CCCCCCCCO[C@H]1C(=O)OCC1(C)C` [Example H33, a-Octyloxy-D-(−)-pantolactone], where the note is “100 ppm”, the “biofilm reduction (relative to the control without active substance)” value was “more than 30%”. As for `CCCCOC1CCOC1=O` (stereo not drawn) [Example H99, butyloxybutyrolactone], the “effect on biofilm formation” value under setting [2] is given as “only a moderate effect”. On the same count and under the same terms, the value for `CCCCOC1C(=O)OCC1(C)C` (stereo not drawn) [Example H123, butyloxypantolactone] was “only a moderate effect”. `CCCCCCCCOC1CCOC1=O` (stereo not drawn) [Example H128, a-Octyloxy-γ-butyrolactone]: the “biofilm reduction (relative to the control without active substance)” value (100 ppm) is “approximately 40%”. For the same molecule, the “reduction in biofilm inhibition” value (on increasing the concentration of active substance, it precipitated out, result not shown) stood at 20%.

On to `CCCCCCCCCCCCCCCCOC1CCOC1=O` (stereo not drawn) [hexadecylbutyrolactone, a-hexadecyloxy-γ-butyrolactone], for which the “effect on biofilm formation” value under setting [1] is recorded as “best biofilm reduction”. In the case of `O=C1OCCC1O` (stereo not drawn) [hydroxybutyrolactone, Hydroxybutyrolactone, reference compound], the “effect on biofilm formation” value under setting [1] is listed as “did not show any notable effect”.

Regarding `CC1(C)COC(=O)C1O` (stereo not drawn) [pantolactone, Pantolactone, reference compound], the “effect on biofilm formation” value under setting [1] was “did not show any notable effect”.
